Where a name gives a salt, the structure may show the parent alone.
System: rats with bladder outlet obstruction
Test: Effect on premicturition contraction in rats with bladder outlet obstruction
Format: in vivo
Settings: iv; for inhibition of the premicturition contraction frequency (single use, ground for dose setting): 0.3 mg(/mL)/kg for the acetanilide compound, 0.001 mg(/mL)/kg for the sulfonamide hydrochloride; for ratio of the premicturition contraction frequency relative to the pre-administration value: drug A 0.3 mg/mL/kg, drug B 0.001 mg/mL/kg, AB combination at both doses, first micturition reflex after administration, 5 animals per group; for significant inhibition of the premicturition contraction (frequency): single use at 0.3 mg/kg or 0.001 mg/kg, or both combined, combination compared to any other groups
Description: The rats were fixed to a dorsal position under pentobarbital anesthesia (50 mg/kg ip), and a catheter (PE-20) was inserted into the bladder from the external urethral orifice. A midline incision was made in the lower abdominal wall, and the proximal urethra, together with the catheter, was tied at two sites with a silk suture (5-0), then, the catheter was removed and the surgical wound was sutured, and then ampicillin (150 mg/kg sc) as an antibiotic was administered to the animals which were then housed in a breeding cage. On the 11th to 12th day after the surgery, a midline incision was made in the lower abdominal wall under pentobarbital anesthesia (50 mg/kg ip), and the silk sutures tying the urethra were removed. The bladder was exposed, followed by drainage of urine, and a catheter (PE-50) was inserted into the bladder from the apical part the bladder and fixed. The other end of this catheter was lead to the outside from the posterior cervical region and then the surgical wound was sutured. In addition, a catheter (PE-50) for the drug administration was inserted into the jugular vein, and then the other end thereof was lead to the outside from the posterior cervical region. Ampicillin (150 mg/kg sc) was administered to the animals which were then returned to a breeding cage. Two to three days later, the rats were retained in a Bollman cage. The catheter inserted into the bladder was connected to a three-way stopcock valve, and one end was connected to a syringe pump (STC-525) and micturition reflex was induced by continuous infusion of physiological saline [3.6 to 12 mL/h (adjusted to achieve a voiding interval of 20 to 40 minutes)]. In addition, the other end was connected to a pressure transducer (TP-400T), and intravesical pressure was measured with a pressure amplifier (AP-601G). The premicturition contraction frequency [evaluated for 10 minutes prior to micturition reflex (maximum intravesical pressure); a contraction showing a drop of 1 cmH2O or more after a rise of 2 cmH2O or more was evaluated as one time] after the stabilization of micturition reflex by continuous infusion of physiological saline for 2 hours or more was taken as a pre-administration value. Vehicle or each drug was intravenously administered after intravesical pressure was lowered to a baseline, and the premicturition contraction frequency in the first micturition reflex was taken as a post-administration value, and evaluated by a ratio (%) relative to the pre-administration value. Drugs for the four groups examined are as follows. Evaluation was carried out using 5 animals for each group.

Compound | inhibition of the premicturition contraction frequency (single use, ground for dose setting) | ratio of the premicturition contraction frequency relative to the pre-administration value | significant inhibition of the premicturition contraction (frequency)
Nc1nc(CC(=O)Nc2ccc(CCNC[C@H](O)c3ccccc3)cc2)cs1 [drug A, (R)-2-(2-aminothiazol-4-yl)-4′-{2-[(2-hydroxy-2-phenylethyl)amino]ethyl}acetanilide] | about 15% | 85.0% | not recognized
CCOc1ccccc1OCCN[C@H](C)Cc1ccc(OC)c(S(N)(=O)=O)c1 [drug B, (R)-5-(2-{[2-(2-ethoxyphenoxy)ethyl]amino}propyl)-2-methoxybenzene-1-sulfonamide hydrochloride] | about 15% | 84.8% | not recognized

Source: patent US20100261770A1, “PHARMACEUTICAL COMPOSITION FOR IMPROVING LOWER URINARY TRACT SYMPTOMS” (ASTELLAS PHARMA INC., priority 2007, published 2010)
